Data: ChEMBL document CHEMBL3580619, “The antimalarial drug atovaquone binds to saposin B with comparable affinity to coenzyme Q10” (Medchemcomm, 2014)

Key:
[1] = Inhibition of coenzyme Q10 binding to cytochrome bc1 complex (unknown origin)
Albumin [2] = target: T1, Albumin (Homo sapiens, UniProt P02768); experiment: Ratio of Ka for human serum albumin by ITC method to Ka for human serum albumin by CD spectroscopy; type: ADME
Albumin [3] = target: T1, Albumin; experiment: Binding affinity to human serum albumin at 150 uM using 20 uM HSA and 20 mM phosphate and 30% DMF at pH 7.4 and 25 degC by ITC method; type: ADME; details: isolated protein, pH 7.4, 150 µM
Albumin [4] = target: T1, Albumin; experiment: Binding affinity to human serum albumin at 845 uM using 33.8 uM HSA and 14 mM phosphate and 30% DMF at pH 7.4 and 25 degC by fluorescence spectroscopy; type: ADME; details: isolated protein, pH 7.4, 845 µM
Prosaposin [5] = target: T2, Prosaposin (Homo sapiens, UniProt P07602); experiment: Binding affinity to human saposin B expressed in Escherichia coli BL21 Gold (DE3) at 150 um using 20 uM SapB and 20 mM phosphate and 30% DMF at pH 7.4 and 25 degC by ITC method; type: ADME; details: pH 7.4, 150 µM
T2 sequence (P07602 whole entry): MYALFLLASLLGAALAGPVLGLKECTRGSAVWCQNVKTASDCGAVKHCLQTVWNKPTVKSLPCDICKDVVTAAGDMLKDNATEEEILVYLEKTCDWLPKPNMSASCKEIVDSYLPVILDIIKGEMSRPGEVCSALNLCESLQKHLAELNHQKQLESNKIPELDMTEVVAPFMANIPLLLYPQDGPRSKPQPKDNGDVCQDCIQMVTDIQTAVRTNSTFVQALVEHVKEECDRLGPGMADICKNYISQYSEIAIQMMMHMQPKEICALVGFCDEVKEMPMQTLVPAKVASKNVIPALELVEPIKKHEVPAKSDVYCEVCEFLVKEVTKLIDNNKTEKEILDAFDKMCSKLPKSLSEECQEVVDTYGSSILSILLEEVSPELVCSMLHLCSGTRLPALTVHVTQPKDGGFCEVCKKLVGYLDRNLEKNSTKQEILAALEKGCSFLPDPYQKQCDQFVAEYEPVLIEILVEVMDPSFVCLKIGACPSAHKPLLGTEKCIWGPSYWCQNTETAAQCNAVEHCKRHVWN

Albumin [6] = target: T1, Albumin; experiment: Binding affinity to human serum albumin by CD spectroscopy; type: ADME; details: isolated protein
Prosaposin [7] = target: T2, Prosaposin; experiment: Binding affinity to human saposin B expressed in Escherichia coli BL21 Gold (DE3) at 150 uM using 15 to 20 uM sapB and 50 mM MES and 10% DMF at pH 5.5 and 25 degC by ITC method; type: ADME; details: pH 5.5, 150 µM
Albumin [8] = target: T1, Albumin; experiment: Binding affinity to human serum albumin in Ringer buffer and 2 to 7% v/v ethanol at pH 7.4 and 37 degC by CD spectroscopy; type: ADME; details: isolated protein
[9] = Protein binding in human plasma; type: ADME, cell-free; details: read-out: PPB
Prosaposin [10] = target: T2, Prosaposin; experiment: Binding affinity to human saposin B expressed in Escherichia coli BL21 Gold (DE3) at 154 uM using 25 to 27 uM sapB and 50 mM MES and 50% DMF at pH 5.5 and 25 degC by ITC method; type: ADME; details: pH 5.5, 154 µM
Prosaposin [11] = target: T2, Prosaposin; experiment: Binding affinity to human saposin B expressed in Escherichia coli BL21 Gold (DE3) at 120 uM using 15 uM sapB and 50 mM MES and 4% THF at pH 5.5 and 25 degC by ITC method; type: ADME; details: pH 5.5, 120 µM

T1 sequence (P02768 whole entry): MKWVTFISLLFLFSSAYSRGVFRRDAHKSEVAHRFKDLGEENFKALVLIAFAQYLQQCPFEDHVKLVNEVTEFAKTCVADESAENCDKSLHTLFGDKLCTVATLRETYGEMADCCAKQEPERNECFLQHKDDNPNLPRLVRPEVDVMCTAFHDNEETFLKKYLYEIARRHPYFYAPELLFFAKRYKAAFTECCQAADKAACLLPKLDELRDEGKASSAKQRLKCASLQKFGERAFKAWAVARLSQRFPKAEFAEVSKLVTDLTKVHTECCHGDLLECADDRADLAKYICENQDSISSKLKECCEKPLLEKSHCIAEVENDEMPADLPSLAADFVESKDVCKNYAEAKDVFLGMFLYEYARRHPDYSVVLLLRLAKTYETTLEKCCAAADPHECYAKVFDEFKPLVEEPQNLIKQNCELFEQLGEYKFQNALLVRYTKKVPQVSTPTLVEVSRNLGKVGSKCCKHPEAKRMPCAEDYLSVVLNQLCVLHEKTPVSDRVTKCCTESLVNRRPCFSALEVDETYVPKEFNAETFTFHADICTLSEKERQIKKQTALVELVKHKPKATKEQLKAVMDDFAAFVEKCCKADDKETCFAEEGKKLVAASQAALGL

| Ki [1] | Ratio (Albumin [2]) | K (Albumin [3]) | Ka (Albumin [4]) | K (Prosaposin [5]) | Ka (Albumin [6]) | K (Prosaposin [7]) | K (Albumin [8]) | fraction unbound [9] | K (Prosaposin [10]) | K (Prosaposin [11]) | Structure (SMILES) |
| --- | --- | --- | --- | --- | --- | --- | --- | --- | --- | --- | --- |
| 9 nM | 10 | 1.06 ×10⁵ /M | 7.15 ×10⁴ /M | 8.02 ×10⁴ /M | 2 ×10⁶ /M | 1.11 ×10⁷ /M | 1 ×10⁶ /M | < 0.005 |  |  | O=C1C(O)=C([C@H]2CC[C@H](c3ccc(Cl)cc3)CC2)C(=O)c2ccccc21 [ATOVAQUONE] |
|  |  |  |  |  |  |  |  |  | 1.7 ×10⁷ /M | 2.41 ×10⁷ /M | COC1=C(OC)C(=O)C(C/C=C(\C)CC/C=C(\C)CC/C=C(\C)CC/C=C(\C)CC/C=C(\C)CC/C=C(\C)CC/C=C(\C)CC/C=C(\C)CC/C=C(\C)CCC=C(C)C)=C(C)C1=O [UBIDECARENONE] |
